Results published in patent publication US11028090B2 (Dong Wha Pharm. Co., Ltd., priority 2017, dated 2021).
Where two headings read alike, the source gives them in different places.

Columns and labels:
[1] = biological target: BRD4 (BD1+BD2) bromodomain (Homo sapiens (Human), UniProt O60885); assay: BRD4 binding inhibition (AlphaScreen, GST-BRD4 vs tetraacetylated histone H4 peptide)
Summary of the method: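 AlphaScreen read after 30 min dark incubation at room temperature with glutathione acceptor/streptavidin donor beads (10 μg/ml each). The beads were added to compound plus 100 nM biotin-H4 (K5,8,12,16-acetyl) peptide and 100 nM GST-BRD4 BD1+BD2 in pH 7.4 HEPES/Tween/BSA/DTT buffer.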

[2] = system: acute myelogenous leukemia cells (MV-4-11 cells); assay: Cytotoxicity to acute myelogenous leukemia cells (MV-4-11 cells), CCK-8; conditions: Homo sapiens, MV4-11, 72 h
[3] = GST-BRD4 (BD1+BD2) / biotinylated acetyl-histone H4 (Lys5,8,12,16) peptide, read-out: IC50, BRD4 binding inhibition
[4] = GST-BRD4 (BD1+BD2) vs biotinylated acetyl-histone H4 peptide, AlphaScreen, read-out: BRD4 IC50
[5] = read-out: MV-4-11 Cytotoxicity IC50
[6] = read-out: IC50, cytotoxicity against acute myelogenous leukemia cells

IC50 [1, 3] [nM] | IC50 [1, 4] [nM] | Structure (SMILES) | IC50 [2, 5] [nM] | IC50 [2, 6] [nM]
≤ 50 | 11 | COc1cc2nc(NCCCCNC(=O)CC(C)C)c3nnc(C)n3c2cc1NC(=S)NC(C)C [Example 569, N-{4-[8-(3-isopropyl-thioureido)-7-methoxy-1-methyl-[1,2,4]triazolo[4,3-a]quinoxaline-4-ylamino]-butyl}-3-methyl-butyramide] | 237 | –
≤ 10 | – | COc1cc(C)c2c(c1)nc(NCCCCNC(=O)CC(C)C)c1nnc(C)n12 [Example 458, [4-(7-methoxy-1,9-dimethyl-[1,2,4]triazolo[4,3-a]quinoxaline-4-ylamino)-butyl]-3-methyl-butyramide] | 530 | –
≤ 10 | 4 | COc1ccc2c(c1)nc(NCCCCNC(=O)[C@H](O)C(C)C)c1nnc(C)n12 [Example 298, 2-(R)-hydroxy-N-[4-(7-methoxy-1-methyl-[1,2,4]triazolo[4,3-a]quinoxaline-4-ylamino)-butyl]-3-methyl-butyramide] | 270 | –
≤ 50 | 23 | CCC(CC)C(=O)NCCCCNc1nc2cc(OC)ccc2n2c(C)nnc12 [Example 290, 2-ethyl-N-[4-(7-methoxy-1-methyl-[1,2,4]triazolo[4,3-a]quinoxaline-4-ylamino)-butyl]-butyramide] | 150 | ≤ 200
≤ 50 | 50 | CCCNc1ccc2c(c1)nc(NCCCCNC(=O)CC(C)C)c1nnc(C)n12 [Example 253, 3-methyl-N-[4-(1-methyl-7-propylamino-[1,2,4]triazolo[4,3-a]quinoxaline-4-ylamino)-butyl]-butyramide] | 235 | –
≤ 50 | 14 | CCC(C)OC(=O)NCCCCNc1nc2cc(OC)ccc2n2c(C)nnc12 (stereo not shown) [Example 280, [4-(7-methoxy-1-methyl-[1,2,4]triazolo[4,3-a]quinoxaline-4-ylamino)-butyl]-carbamic acid-sec-butylester] | 40 | ≤ 200
– | 56 | CCOC(=O)NCCCCNc1nc2cc(OC)c(OC)cc2n2c(C)nnc12 [Example 61, [4-(7,8-dimethoxy-1-methyl-[1,2,4]triazolo[4,3-a]quinoxaline-4-ylamino)-butyl]-carbamic acid ethylester] | 380 | –
– | 57 | COc1cc2nc(NCCCCNC(=O)CC(C)C)c3nnc(C)n3c2cc1NO [Example 558, N-[4-(8-hydroxyamino-7-methoxy-1-methyl-[1,2,4]triazolo[4,3-a]quinoxaline-4-ylamino)-butyl]-3-methyl-butyramide] | 87 | ≤ 200
≤ 50 | – | COc1cc2nc(NCCCCNC(=O)c3ccc(C(C)(C)C)cc3)c3nnc(C)n3c2cc1OC [Example 96, 4-tert-butyl-N-[4-(7,8-dimethoxy-1-methyl-[1,2,4]triazolo[4,3-a]quinoxaline-4-ylamino)-butyl]-benzamide] | 630 | –
≤ 50 | 15 | CCC(C)CC(=O)NCCCCNc1nc2cc(OC)c(OC)cc2n2c(C)nnc12 (stereo not shown) [Example 73, 3-methyl-pentanoic acid-[4-(7,8-dimethoxy-1-methyl-[1,2,4]triazolo[4,3-a]quinoxaline-4-ylamino)-butyl]-amide] | 10 | ≤ 200
≤ 50 | 17 | Cc1ccc2[nH]c(-c3ccc4c(c3)nc(NCCCCNC(=O)CC(C)C)c3nnc(C)n34)nc2c1 [Example 223, 3-methyl-N-{4-[1-methyl-7-(5-methyl-1H-benzoimidazole-2-yl)-[1,2,4]triazolo[4,3-a]quinoxaline-4-ylamino]-butyl}-butyramide] | 14 | ≤ 200
≤ 50 | 33 | COc1ccc2c(c1)nc(NCCCCNC(=O)[C@H](C(C)C)N(C)C)c1nnc(C)n12 [Example 313, 2-(S)-dimethylamino-N-[4-(7-methoxy-1-methyl-[1,2,4]triazolo[4,3-a]quinoxaline-4-ylamino)-butyl]-3-methyl-butyramide] | 570 | –
≤ 50 | 42 | COc1ccc2c(c1)nc(NCCCCNC(=O)C(NC(=O)OC(C)(C)C)C(C)C)c1nnc(C)n12 (stereo not shown) [Example 310, {1-[4-(7-methoxy-1-methyl-[1,2,4]triazolo[4,3-a]quinoxaline-4-ylamino)-butylcarbamoyl]-2-methyl-propyl}-carbamic acid-tert-butylester] | 126 | ≤ 200

The remaining lines, values behind:

Structure (SMILES) | IC50 [1, 3] [nM] | IC50 [1, 4] [nM] | IC50 [2, 5] [nM] | IC50 [2, 6] [nM]
COCCOc1ccc2c(c1)nc(NCCCCNC(=O)Cc1ccco1)c1nnc(C)n12 [Example 407, 2-furan-2-yl-N-{4-[7-(2-methoxy-ethoxy)-1-methyl-[1,2,4]triazolo[4,3-a]quinoxaline-4-ylamino]-butyl}-acetamide] | ≤ 10 | 7 | 180 | –
COCCOc1ccc2c(c1)nc(NCCCCNC(=O)OCC(C)C)c1nnc(C)n12 [Example 369, {4-[7-(2-methoxy-ethoxy)-1-methyl-[1,2,4]triazolo[4,3-a]quinoxaline-4-ylamino]-butyl}-carbamic acid isobutylester] | ≤ 50 | 14 | 130 | ≤ 200
Cc1nnc2c(NCCCCNC(=O)c3ccccc3Cl)nc3cc(OC(C)C)ccc3n12 [Example 454, 2-chloro-N-[4-(7-isopropoxy-1-methyl-[1,2,4]triazolo[4,3-a]quinoxaline-4-ylamino)-butyl]-benzamide] | ≤ 50 | 11 | 80 | ≤ 200
Cc1nnc2c(NCCCCNC(=O)[C@@H](F)C(C)C)nc3cc(N4CCOCC4)ccc3n12 [Example 500, 2-(S)-fluoro-3-methyl-N-[4-(1-methyl-7-morpholine-4-yl-[1,2,4]triazolo[4,3-a]quinoxaline-4-ylamino)-butyl]-butyramide] | ≤ 50 | 40 | 98 | ≤ 200
Cc1nnc2c(NCCCCNC(=O)CC(C)C)nc3cc(OCCN4CCOCC4)ccc3n12 [Example 432, 3-methyl-N-{4-[1-methyl-7-(2-morpholine-4-yl-ethoxy)-[1,2,4]triazolo[4,3-a]quinoxaline-4-ylamino]-butyl}-butyramide] | ≤ 50 | 50 | 100 | ≤ 200
Cc1nnc2c(NCCCCNC(=O)OC(C)C)nc3cc(-n4ccnc4)ccc3n12 [Example 494, [4-(7-imidazole-1-yl-1-methyl-[1,2,4]triazolo[4,3-a]quinoxaline-4-ylamino)-butyl]-carbamic acid isopropylester] | ≤ 50 | 14 | 110 | ≤ 200
Cc1nnc2c(NCCCCNC(=O)[C@@H](NC(=O)[C@@H](F)C(C)C)C(C)C)nc3cc(N4C[C@@H](C)O[C@@H](C)C4)ccc3n12 [Example 517] | ≤ 50 | 38 | 236 | –
Cc1nnc2c(NCCCCNC(=O)c3ccccc3Cl)nc3cc(OC(F)(F)F)ccc3n12 [Example 274, 2-chloro-N-[4-(1-methyl-7-trifluoromethoxy-[1,2,4]triazolo[4,3-a]quinoxaline-4-ylamino)-butyl]-benzamide] | ≤ 50 | 27 | 280 | –
